Test results: PubChem BioAssay AID2060898 (Molecular Pharmacology Branch, DTP, NCI, 2025)

Test system: 616215-338-R-J1-PDC complex spheroid viability
Test: Anticancer human tumor 616215-338-R-J1-PDC patient-derived colon adenocarcinoma cell line growth inhibition [RAS]
Conditions: for IC50: curve of first compound; for viability, T/C: stronger effect = lower value
Summary of the method: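 Tumour cells grown as complex spheroids with HUVEC endothelial cells and mesenchymal stem cells, treated with RAS pathway inhibitor combinations. Each agent spans half-log steps from near clinical Cmax, or 10 microM where Cmax is unknown.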

[1] = second compound 0.000949 µM, first compound 0.000949 µM
[2] = second compound 0.000949 µM, first compound 0.003 µM
[3] = second compound 0.000949 µM, first compound 0.00949 µM
[4] = second compound 0.000949 µM, first compound 0.03 µM
[5] = second compound 0.000949 µM, first compound 0.0949 µM
[6] = second compound 0.000949 µM, first compound 0.3 µM
[7] = second compound 0.003 µM, first compound 0.000949 µM
[8] = second compound 0.003 µM, first compound 0.003 µM
[9] = second compound 0.003 µM, first compound 0.00949 µM
[10] = second compound 0.003 µM, first compound 0.03 µM
[11] = second compound 0.003 µM, first compound 0.0949 µM
[12] = second compound 0.003 µM, first compound 0.3 µM
[13] = second compound 0.00949 µM, first compound 0.000949 µM
[14] = second compound 0.00949 µM, first compound 0.003 µM
[15] = second compound 0.00949 µM, first compound 0.00949 µM
[16] = second compound 0.00949 µM, first compound 0.03 µM
[17] = second compound 0.00949 µM, first compound 0.0949 µM
[18] = second compound 0.00949 µM, first compound 0.3 µM
[19] = second compound 0.03 µM, first compound 0.000949 µM
[20] = second compound 0.03 µM, first compound 0.003 µM
[21] = second compound 0.03 µM, first compound 0.00949 µM
[22] = second compound 0.03 µM, first compound 0.03 µM
[23] = second compound 0.03 µM, first compound 0.0949 µM
[24] = second compound 0.03 µM, first compound 0.3 µM
[25] = second compound 0.0949 µM, first compound 0.000949 µM
[26] = second compound 0.0949 µM, first compound 0.003 µM
[27] = second compound 0.0949 µM, first compound 0.00949 µM
[28] = second compound 0.0949 µM, first compound 0.03 µM
[29] = second compound 0.0949 µM, first compound 0.0949 µM
[30] = second compound 0.0949 µM, first compound 0.3 µM
[31] = second compound 0.3 µM, first compound 0.000949 µM
[32] = second compound 0.3 µM, first compound 0.003 µM
[33] = second compound 0.3 µM, first compound 0.00949 µM
[34] = second compound 0.3 µM, first compound 0.03 µM
[35] = second compound 0.3 µM, first compound 0.0949 µM
[36] = second compound 0.3 µM, first compound 0.3 µM
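Also: spheroids exposed to agents for seven days before viability readout.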
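For viability, T/C in this document: 100% = DMSO vehicle control viability.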

C=CC(=O)N1CCN(c2nc(OCC3CCCN3C)nc3c(F)c(-c4nc(N)cc(C)c4C(F)(F)F)c(Cl)cc23)C(C)C1 (stereo unspecified) + CCn1c(-c2cccnc2C(C)OC)c2c3cc(ccc31)N1CCOC(CC(NC(=O)C(C(C)C)N(C)C(=O)C3(F)CCN(C(=O)C#CC(C)(C)N(C)C)CC3)C(=O)N3CCCC(N3)C(=O)OCC(C)(C)C2)C1 showed an IC50 (second compound 0.000949 µM) greater than 1 µM, an IC50 (second compound 0.003 µM) greater than 1 µM and an IC50 (second compound 0.00949 µM) greater than 1 µM. For the same compound, the IC50 (second compound 0.03 µM) was greater than 1 µM, the IC50 (second compound 0.0949 µM) was greater than 1 µM and the IC50 (second compound 0.3 µM) was greater than 1 µM. It also gave a viability, T/C (second compound 0.000949 µM, first compound 0.00316 µM) of 106%, a viability, T/C (second compound 0.000949 µM, first compound 0.01 µM) of 100% and a viability, T/C (second compound 0.000949 µM, first compound 0.0316 µM) of 106%. For the same compound, the viability, T/C (second compound 0.000949 µM, first compound 0.1 µM) was 108%, the viability, T/C (second compound 0.000949 µM, first compound 0.316 µM) was 115% and the viability, T/C (second compound 0.000949 µM, first compound 1 µM) was 103%. It also gave a viability, T/C (second compound 0.003 µM, first compound 0.00316 µM) of 103%, a viability, T/C (second compound 0.003 µM, first compound 0.01 µM) of 114% and a viability, T/C (second compound 0.003 µM, first compound 0.0316 µM) of 100%. It also gave a viability, T/C (second compound 0.003 µM, first compound 0.1 µM) of 111%, a viability, T/C (second compound 0.003 µM, first compound 0.316 µM) of 116% and a viability, T/C (second compound 0.003 µM, first compound 1 µM) of 101%. For the same compound, the viability, T/C (second compound 0.00949 µM, first compound 0.00316 µM) was 106%, the viability, T/C (second compound 0.00949 µM, first compound 0.01 µM) was 101% and the viability, T/C (second compound 0.00949 µM, first compound 0.0316 µM) was 106%. The viability, T/C (second compound 0.00949 µM, first compound 0.1 µM) was 104%, the viability, T/C (second compound 0.00949 µM, first compound 0.316 µM) was 106% and the viability, T/C (second compound 0.00949 µM, first compound 1 µM) was 100%. The viability, T/C (second compound 0.03 µM, first compound 0.00316 µM) was 118%, the viability, T/C (second compound 0.03 µM, first compound 0.01 µM) was 110% and the viability, T/C (second compound 0.03 µM, first compound 0.0316 µM) was 105%. The viability, T/C (second compound 0.03 µM, first compound 0.1 µM) was 115%, the viability, T/C (second compound 0.03 µM, first compound 0.316 µM) was 101% and the viability, T/C (second compound 0.03 µM, first compound 1 µM) was 98.6%. The viability, T/C (second compound 0.0949 µM, first compound 0.00316 µM) was 135%, the viability, T/C (second compound 0.0949 µM, first compound 0.01 µM) was 113% and the viability, T/C (second compound 0.0949 µM, first compound 0.0316 µM) was 109%. For the same compound, the viability, T/C (second compound 0.0949 µM, first compound 0.1 µM) was 127%, the viability, T/C (second compound 0.0949 µM, first compound 0.316 µM) was 126% and the viability, T/C (second compound 0.0949 µM, first compound 1 µM) was 116%. The viability, T/C (second compound 0.3 µM, first compound 0.00316 µM) was 117%, the viability, T/C (second compound 0.3 µM, first compound 0.01 µM) was 108% and the viability, T/C (second compound 0.3 µM, first compound 0.0316 µM) was 107%. It also gave a viability, T/C (second compound 0.3 µM, first compound 0.1 µM) of 112%, a viability, T/C (second compound 0.3 µM, first compound 0.316 µM) of 113% and a viability, T/C (second compound 0.3 µM, first compound 1 µM) of 107%.
For CC1(C)CCC(Nc2ncc(C(F)(F)F)c(-c3c[nH]c4c(P(C)(C)=O)c(C#N)ccc34)n2)CN1 (stereo unspecified) + CCn1c(-c2cccnc2C(C)OC)c2c3cc(ccc31)N1CCOC(CC(NC(=O)C(C(C)C)N(C)C(=O)C3(F)CCN(C(=O)C#CC(C)(C)N(C)C)CC3)C(=O)N3CCCC(N3)C(=O)OCC(C)(C)C2)C1, the IC50 (second compound 0.000949 µM) was 0.0158 µM, the IC50 (second compound 0.003 µM) was 0.0153 µM and the IC50 (second compound 0.00949 µM) was 0.0139 µM. It also gave an IC50 (second compound 0.03 µM) of 0.0133 µM, an IC50 (second compound 0.0949 µM) of 0.00925 µM and an IC50 (second compound 0.3 µM) of 0.00841 µM. The viability, T/C [1] was 108%, the viability, T/C [2] was 107% and the viability, T/C [3] was 62.8%. It also gave a viability, T/C [4] of 34.2%, a viability, T/C [5] of 33.9% and a viability, T/C [6] of 31.9%. The viability, T/C [7] was 107%, the viability, T/C [8] was 111% and the viability, T/C [9] was 60.2%. The viability, T/C [10] was 39.3%, the viability, T/C [11] was 32.2% and the viability, T/C [12] was 35.2%. The viability, T/C [13] was 113%, the viability, T/C [14] was 103% and the viability, T/C [15] was 57%. It also gave a viability, T/C [16] of 35.7%, a viability, T/C [17] of 32.9% and a viability, T/C [18] of 36.5%. The viability, T/C [19] was 115%, the viability, T/C [20] was 117% and the viability, T/C [21] was 57%. It also gave a viability, T/C [22] of 34.6%, a viability, T/C [23] of 32.9% and a viability, T/C [24] of 32.4%. The viability, T/C [25] was 119%, the viability, T/C [26] was 93% and the viability, T/C [27] was 50.3%. The viability, T/C [28] was 27.6%, the viability, T/C [29] was 31.2% and the viability, T/C [30] was 27.1%. For the same compound, the viability, T/C [31] was 95.1%, the viability, T/C [32] was 95.3% and the viability, T/C [33] was 44.8%. For the same compound, the viability, T/C [34] was 28.8%, the viability, T/C [35] was 28.4% and the viability, T/C [36] was 34.6%.
In the case of CCc1c2c(nc3ccc(O)cc13)-c1cc3c(c(=O)n1C2)COC(=O)[C@]3(O)CC + CCn1c(-c2cccnc2C(C)OC)c2c3cc(ccc31)N1CCOC(CC(NC(=O)C(C(C)C)N(C)C(=O)C3(F)CCN(C(=O)C#CC(C)(C)N(C)C)CC3)C(=O)N3CCCC(N3)C(=O)OCC(C)(C)C2)C1, the IC50 (second compound 0.000949 µM) is reported as 0.0153 µM, the IC50 (second compound 0.003 µM) is reported as 0.0138 µM and the IC50 (second compound 0.00949 µM) is reported as 0.0142 µM. For the same compound, the IC50 (second compound 0.03 µM) was 0.0164 µM, the IC50 (second compound 0.0949 µM) was 0.00804 µM and the IC50 (second compound 0.3 µM) was 0.00913 µM. It also gave a viability, T/C [1] of 105%, a viability, T/C [2] of 101% and a viability, T/C [3] of 56.8%. The viability, T/C [4] was 39%, the viability, T/C [5] was 32.6% and the viability, T/C [6] was 18.1%. The viability, T/C [7] was 97.9%, the viability, T/C [8] was 99% and the viability, T/C [9] was 56%. It also gave a viability, T/C [10] of 35.8%, a viability, T/C [11] of 30.6% and a viability, T/C [12] of 16.6%. It also gave a viability, T/C [13] of 107%, a viability, T/C [14] of 98.4% and a viability, T/C [15] of 58.1%. The viability, T/C [16] was 32%, the viability, T/C [17] was 30.1% and the viability, T/C [18] was 15.1%. For the same compound, the viability, T/C [19] was 111%, the viability, T/C [20] was 110% and the viability, T/C [21] was 58.7%. It also gave a viability, T/C [22] of 40.9%, a viability, T/C [23] of 30.8% and a viability, T/C [24] of 16.4%. The viability, T/C [25] was 99.9%, the viability, T/C [26] was 97.6% and the viability, T/C [27] was 41.9%. It also gave a viability, T/C [28] of 33.4%, a viability, T/C [29] of 30.2% and a viability, T/C [30] of 16.6%. It also gave a viability, T/C [31] of 103%, a viability, T/C [32] of 69% and a viability, T/C [33] of 48.1%. For the same compound, the viability, T/C [34] was 37.1%, the viability, T/C [35] was 26% and the viability, T/C [36] was 14.3%.
